What was measured:
Cavia porcellus = experiment: Antiinflammatory activity in depilated albino guinea pig assessed as suppression of UV radiation-induced skin erythema compound administered via gavage measured 2 hrs after UV irradiation exposure; type: functional; conditions: light or radiation study, po, read-out: MED
[1] = Dissociation constant, pKa of the compound in DMF-H2O (6.7% v/v) by titration method; type: physicochemical

| SMILES | pKa [1] | minimal effective dose (Cavia porcellus) [mg/kg] |
| --- | --- | --- |
| O=C(O)Cc1cccc2c(-c3ccccc3)cccc12 | 6.7 | 0.1 |
| O=C(O)Cc1c(-c2ccccc2)ccc2ccccc12 | 6.9 | > 50 |
| O=C(O)Cc1ccc2c(-c3ccccc3)cccc2c1 | 6.6 | 3.1 |
| O=C(O)Cc1ccc2cc(-c3ccccc3)ccc2c1 | 6.6 | 3.1 |
| O=C(O)Cc1ccc2ccc(-c3ccccc3)cc2c1 | 6.7 | > 50 |
| O=C(O)Cc1ccc2cccc(-c3ccccc3)c2c1 | 6.8 | > 100 |
| COc1ccc2c(c1)c(CC(=O)O)c(C)n2C(=O)c1ccc(Cl)cc1 [INDOMETHACIN] | – | 1.7 |
| Cc1ccc(Cl)c(Nc2ccccc2C(=O)O)c1Cl [MECLOFENAMIC ACID] | – | 0.4 |
| CCCCC1C(=O)N(c2ccccc2)N(c2ccccc2)C1=O [PHENYLBUTAZONE] | – | 5.3 |

More lines, main results first:

| pKa [1] | SMILES | minimal effective dose (Cavia porcellus) [mg/kg] |
| --- | --- | --- |
| 6.7 | O=C(O)Cc1cc(-c2ccccc2)cc2ccccc12 | 50 |
| 6.8 | O=C(O)Cc1ccc(-c2ccccc2)c2ccccc12 | 0.1 |
| 6.9 | O=C(O)Cc1cccc2cc(-c3ccccc3)ccc12 | 25 |
| 6.9 | O=C(O)Cc1cccc2ccc(-c3ccccc3)cc12 | 100 |
| 7.2 | O=C(O)Cc1ccc2ccccc2c1-c1ccccc1 | > 200 |
| 7.1 | O=C(O)Cc1cc2ccccc2cc1-c1ccccc1 | > 200 |
| 7 | O=C(O)Cc1cc(-c2ccccc2)c2ccccc2c1 | 100 |

From ChEMBL document CHEMBL3243945, “Antiinflammatory activity of isomeric phenylnaphthaleneacetic acids” (J Med Chem, 1977)
